The NIST ThermoML archive (doi:10.1021/je300632p)
± gives the expanded uncertainty stated by the source.

Experiment: xn = mol fraction of the nth substance listed
Settings: 101 kPa, Liquid; for viscosity: Falling or rolling sphere viscometry; for mass density: Vibrating tube method

CCCO [propan-1-ol] + CCO
Settings | mass density [kg/m3] | viscosity [mPa·s]
293.15 K, x2 = 0 | 803.58 ± 0.13 | 2.195 ± 0.018
293.15 K, x2 = 0.1 | 802.08 ± 0.13 | 2.034 ± 0.017
293.15 K, x2 = 0.2 | 800.86 ± 0.13 | 1.92 ± 0.016
293.15 K, x2 = 0.301 | 799.68 ± 0.12 | 1.825 ± 0.015
293.15 K, x2 = 0.4 | 798.4 ± 0.12 | 1.684 ± 0.015
293.15 K, x2 = 0.5 | 797.31 ± 0.12 | 1.586 ± 0.014
293.15 K, x2 = 0.599 | 795.87 ± 0.12 | 1.505 ± 0.014
293.15 K, x2 = 0.701 | 794.36 ± 0.12 | 1.408 ± 0.013
293.15 K, x2 = 0.8 | 792.88 ± 0.12 | 1.324 ± 0.012
293.15 K, x2 = 0.9 | 791.44 ± 0.12 | 1.242 ± 0.012
298.15 K, x2 = 0 | 799.59 ± 0.13 | 1.902 ± 0.016
298.15 K, x2 = 0.1 | 798.08 ± 0.13 | 1.81 ± 0.015
298.15 K, x2 = 0.2 | 796.82 ± 0.13 | 1.713 ± 0.015
298.15 K, x2 = 0.301 | 795.65 ± 0.13 | 1.632 ± 0.014
298.15 K, x2 = 0.4 | 794.33 ± 0.13 | 1.511 ± 0.014
298.15 K, x2 = 0.5 | 793.22 ± 0.13 | 1.425 ± 0.013
298.15 K, x2 = 0.599 | 791.75 ± 0.13 | 1.355 ± 0.013
298.15 K, x2 = 0.701 | 790.21 ± 0.13 | 1.272 ± 0.012
298.15 K, x2 = 0.8 | 788.69 ± 0.13 | 1.198 ± 0.012
298.15 K, x2 = 0.9 | 787.22 ± 0.13 | 1.127 ± 0.011
303.15 K, x2 = 0 | 795.58 ± 0.13 | 1.694 ± 0.015
303.15 K, x2 = 0.1 | 794.05 ± 0.13 | 1.615 ± 0.014
303.15 K, x2 = 0.2 | 792.77 ± 0.13 | 1.533 ± 0.014
303.15 K, x2 = 0.301 | 791.57 ± 0.13 | 1.464 ± 0.013
303.15 K, x2 = 0.4 | 790.22 ± 0.13 | 1.359 ± 0.013
303.15 K, x2 = 0.5 | 789.08 ± 0.13 | 1.284 ± 0.012
303.15 K, x2 = 0.599 | 787.59 ± 0.13 | 1.225 ± 0.012
303.15 K, x2 = 0.701 | 786.02 ± 0.13 | 1.152 ± 0.012
303.15 K, x2 = 0.8 | 784.47 ± 0.13 | 1.088 ± 0.011
303.15 K, x2 = 0.9 | 782.96 ± 0.13 | 1.024 ± 0.011
308.15 K, x2 = 0 | 791.53 ± 0.13 | 1.511 ± 0.014
308.15 K, x2 = 0.1 | 789.98 ± 0.13 | 1.446 ± 0.013
308.15 K, x2 = 0.2 | 788.8 ± 0.13 | 1.376 ± 0.013
308.15 K, x2 = 0.301 | 787.45 ± 0.13 | 1.317 ± 0.012
308.15 K, x2 = 0.4 | 786.08 ± 0.13 | 1.225 ± 0.012
308.15 K, x2 = 0.5 | 784.92 ± 0.13 | 1.16 ± 0.012
308.15 K, x2 = 0.599 | 783.4 ± 0.13 | 1.11 ± 0.011
308.15 K, x2 = 0.701 | 781.8 ± 0.13 | 1.046 ± 0.011
308.15 K, x2 = 0.8 | 780.21 ± 0.13 | 0.989 ± 0.011
308.15 K, x2 = 0.9 | 778.67 ± 0.13 | 0.933 ± 0.01
313.15 K, x2 = 0 | 787.44 ± 0.13 | 1.352 ± 0.013
313.15 K, x2 = 0.1 | 785.86 ± 0.13 | 1.297 ± 0.012
313.15 K, x2 = 0.2 | 784.66 ± 0.13 | 1.239 ± 0.012
313.15 K, x2 = 0.301 | 783.29 ± 0.13 | 1.188 ± 0.012
313.15 K, x2 = 0.4 | 781.9 ± 0.13 | 1.107 ± 0.011
313.15 K, x2 = 0.5 | 780.71 ± 0.13 | 1.051 ± 0.011
313.15 K, x2 = 0.599 | 779.16 ± 0.13 | 1.007 ± 0.011
313.15 K, x2 = 0.701 | 777.53 ± 0.13 | 0.952 ± 0.011
313.15 K, x2 = 0.8 | 775.91 ± 0.13 | 0.901 ± 0.01
313.15 K, x2 = 0.9 | 774.33 ± 0.13 | 0.852 ± 0.01
318.15 K, x2 = 0 | 783.3 ± 0.13 | 1.214 ± 0.012
318.15 K, x2 = 0.1 | 781.7 ± 0.13 | 1.167 ± 0.012
318.15 K, x2 = 0.2 | 780.48 ± 0.13 | 1.118 ± 0.011
318.15 K, x2 = 0.301 | 779.09 ± 0.13 | 1.074 ± 0.011
318.15 K, x2 = 0.4 | 777.68 ± 0.13 | 1.003 ± 0.011
318.15 K, x2 = 0.5 | 776.45 ± 0.13 | 0.954 ± 0.011
318.15 K, x2 = 0.599 | 774.88 ± 0.13 | 0.916 ± 0.01
318.15 K, x2 = 0.701 | 773.22 ± 0.13 | 0.867 ± 0.01
318.15 K, x2 = 0.8 | 771.56 ± 0.13 | 0.823 ± 0.01
318.15 K, x2 = 0.9 | 769.95 ± 0.13 | 0.78 ± 0.01
323.15 K, x2 = 0 | 779.11 ± 0.13 | 1.093 ± 0.011
323.15 K, x2 = 0.1 | 777.49 ± 0.13 | 1.053 ± 0.011
323.15 K, x2 = 0.2 | 776.24 ± 0.13 | 1.012 ± 0.011
323.15 K, x2 = 0.301 | 774.83 ± 0.13 | 0.973 ± 0.011
323.15 K, x2 = 0.4 | 773.39 ± 0.13 | 0.911 ± 0.01
323.15 K, x2 = 0.5 | 772.14 ± 0.13 | 0.867 ± 0.01
323.15 K, x2 = 0.599 | 770.54 ± 0.13 | 0.835 ± 0.01
323.15 K, x2 = 0.701 | 768.85 ± 0.13 | 0.792 ± 0.01
323.15 K, x2 = 0.8 | 767.16 ± 0.13 | 0.753 ± 0.01
323.15 K, x2 = 0.9 | 765.52 ± 0.13 | 0.715 ± 0.01
328.15 K, x2 = 0 | 774.86 ± 0.13 | 0.986 ± 0.011
328.15 K, x2 = 0.1 | 773.22 ± 0.13 | 0.953 ± 0.011
328.15 K, x2 = 0.2 | 771.95 ± 0.13 | 0.919 ± 0.01
328.15 K, x2 = 0.301 | 770.52 ± 0.13 | 0.884 ± 0.01
328.15 K, x2 = 0.4 | 769.06 ± 0.13 | 0.829 ± 0.01
328.15 K, x2 = 0.5 | 767.78 ± 0.13 | 0.79 ± 0.01
328.15 K, x2 = 0.599 | 766.15 ± 0.13 | 0.763 ± 0.01
328.15 K, x2 = 0.701 | 764.43 ± 0.13 | 0.725 ± 0.01
328.15 K, x2 = 0.8 | 762.71 ± 0.13 | 0.69 ± 0.009
328.15 K, x2 = 0.9 | 761.02 ± 0.13 | 0.657 ± 0.009

CCO [ethanol] + CCCCO
x1 = 1
Settings | mass density [kg/m3] | viscosity [mPa·s]
293.15 K | 790.13 ± 0.12 | 1.151 ± 0.024
298.15 K | 785.86 ± 0.13 | 1.069 ± 0.023
303.15 K | 781.56 ± 0.13 | 0.973 ± 0.021
308.15 K | 777.23 ± 0.13 | 0.888 ± 0.019
313.15 K | 772.86 ± 0.13 | 0.813 ± 0.017
318.15 K | 768.44 ± 0.13 | 0.755 ± 0.016
323.15 K | 763.97 ± 0.13 | 0.684 ± 0.015
328.15 K | 759.44 ± 0.13 | 0.63 ± 0.013

CCO [ethanol] + CCCO
x1 = 1
Settings | mass density [kg/m3] | viscosity [mPa·s]
293.15 K | 790.13 ± 0.12 | 1.151 ± 0.012
298.15 K | 785.86 ± 0.13 | 1.069 ± 0.011
303.15 K | 781.56 ± 0.13 | 0.973 ± 0.011
308.15 K | 777.23 ± 0.13 | 0.888 ± 0.01
313.15 K | 772.86 ± 0.13 | 0.813 ± 0.01
318.15 K | 768.44 ± 0.13 | 0.755 ± 0.01
323.15 K | 763.97 ± 0.13 | 0.684 ± 0.009
328.15 K | 759.44 ± 0.13 | 0.63 ± 0.009
